# Source: US8114880B2, “Piperidine or piperazine substituted tetrahydro-naphthalene-1-carboxylic acid MTP inhibiting compounds” (Janssen Pharmaceutica N.V., priority 2006, dated 2012)
# Molecular target: MTP (Homo sapiens, UniProt P55157)
# Test: MTP assay (triglyceride transfer from donor to acceptor vesicles)
# Type: biochemical
# Conditions: MTP activity, percent triglyceride transfer from donor to acceptor vesicles, 37° C.
# Procedure: MTP activity was measured using an assay similar to one described by J. R. Wetterau and D. B. Zilversmit in Chemistry and Physics of Lipids, 38, 205-222 (1985). To prepare the donor and acceptor vesicles, the appropriate lipids in chloroform were put into a glass test tube and dried under a stream of nitrogen. A buffer containing 15 mM Tris-HCl pH 7.5, 1 mM EDTA, 40 mM NaCl, 0.02% NaN3 (assay buffer) was added to the dried lipid. The mixture was vortexed briefly and the lipids were then allowed to hydrate for 20 minutes on ice. Vesicles were then prepared by bath sonication (Branson 2200) at room temperature for maximum 15 minutes. Butylated hydroxytoluene was included in all vesicle preparations at a concentration of 0.1%. The lipid transfer assay mixture contained donor vesicles (40 nmol phosphatidylcholine, 7.5 mol % of cardiolipin and 0.25 mol % glycerol tri [1-^14C]-oleate), acceptor vesicles (240 nmol phosphatidylcholine) and 5 mg BSA in a total volume of 675 μl in a 1.5 ml microcentrifuge tube. Test compounds were added dissolved in DMSO (0.13% final concentration). After 5 minutes of pre-incubation at 37° C., the reaction was started by the addition of MTP in 100 μl dialysis buffer. The reaction was stopped by the addition of 400 μl DEAE-52 cellulose pre-equilibrated in 15 mM Tris-HCl pH 7.5, 1 mM EDTA, 0.02% NaN3 (1:1, vol/vol). The mixture was agitated for 4 minutes and centrifuged for 2 minutes at maximum speed in an Eppendorf centrifuge (4° C.) to pellet the DEAE-52-bound donor vesicles. An aliquot of the supernatant containing the acceptor liposomes was counted and the [^14C]-counts were used to calculate the percent triglyceride transfer from donor to acceptor vesicles.
# MTP, sequence (P55157 19-894, species assumed): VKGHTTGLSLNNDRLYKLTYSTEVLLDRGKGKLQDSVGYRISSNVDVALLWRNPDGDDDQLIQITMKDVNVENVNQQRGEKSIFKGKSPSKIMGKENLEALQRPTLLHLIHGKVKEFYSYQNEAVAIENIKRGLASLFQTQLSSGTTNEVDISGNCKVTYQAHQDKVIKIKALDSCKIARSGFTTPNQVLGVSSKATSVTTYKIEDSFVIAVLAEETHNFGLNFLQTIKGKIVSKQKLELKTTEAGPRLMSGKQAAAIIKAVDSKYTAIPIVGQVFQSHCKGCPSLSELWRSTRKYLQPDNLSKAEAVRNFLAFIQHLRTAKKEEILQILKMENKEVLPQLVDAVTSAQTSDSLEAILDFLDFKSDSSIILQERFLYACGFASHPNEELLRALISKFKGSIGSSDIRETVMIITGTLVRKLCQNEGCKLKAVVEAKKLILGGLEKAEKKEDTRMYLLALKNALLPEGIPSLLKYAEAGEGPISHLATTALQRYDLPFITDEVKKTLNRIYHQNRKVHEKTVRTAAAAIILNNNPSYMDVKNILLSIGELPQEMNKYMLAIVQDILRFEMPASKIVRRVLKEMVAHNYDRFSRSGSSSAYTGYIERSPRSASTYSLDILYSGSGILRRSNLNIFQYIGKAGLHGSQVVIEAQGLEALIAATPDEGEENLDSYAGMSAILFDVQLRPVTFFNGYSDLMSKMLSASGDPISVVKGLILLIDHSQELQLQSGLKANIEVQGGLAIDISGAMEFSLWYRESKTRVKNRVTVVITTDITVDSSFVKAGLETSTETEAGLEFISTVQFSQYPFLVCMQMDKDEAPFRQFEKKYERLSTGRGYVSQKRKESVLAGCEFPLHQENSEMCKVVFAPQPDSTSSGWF
# MTP, sequence (P07237 18-508 partner, species assumed): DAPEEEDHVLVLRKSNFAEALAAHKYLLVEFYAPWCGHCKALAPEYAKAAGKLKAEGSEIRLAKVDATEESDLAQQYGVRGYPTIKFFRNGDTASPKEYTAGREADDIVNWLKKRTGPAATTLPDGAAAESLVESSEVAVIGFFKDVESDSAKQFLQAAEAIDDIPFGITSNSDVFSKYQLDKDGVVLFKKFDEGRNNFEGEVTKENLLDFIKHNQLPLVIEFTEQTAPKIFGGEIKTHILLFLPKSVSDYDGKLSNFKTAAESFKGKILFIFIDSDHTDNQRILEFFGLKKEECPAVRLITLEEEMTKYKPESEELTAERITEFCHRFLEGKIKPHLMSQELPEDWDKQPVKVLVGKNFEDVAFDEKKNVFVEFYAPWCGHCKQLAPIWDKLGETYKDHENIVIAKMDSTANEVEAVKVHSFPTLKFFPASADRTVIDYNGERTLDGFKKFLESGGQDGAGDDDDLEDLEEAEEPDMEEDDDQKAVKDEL
row,Structure (SMILES),IC50 [nM]
1,"COc1ccccc1C(=O)NC1CCN(C(=O)[C@@H]2CC[C@@](C(N)=O)(c3ccccc3)c3ccccc32)CC1 (single isomer, unassigned) [Co. No. 41]",> 10000
2,"COc1ccccc1C(=O)NC1CCN(C(=O)[C@H]2CC[C@@](C(N)=O)(c3ccccc3)c3ccccc32)CC1 (single isomer, unassigned) [Co. No. 44]",> 1000
3,Cn1cccc(C(=O)NC2CCN(C(=O)[C@H]3CC[C@@](C(=O)N4C[C@H](O)C[C@H]4C(=O)O)(c4ccccc4)c4ccccc43)CC2)c1=O [Co. No. 192],> 10000
4,Cn1cccc(C(=O)NC2CCN(C(=O)[C@H]3CC[C@@](C(=O)N[C@@H](C(=O)O)c4ccccc4)(c4ccccc4)c4ccccc43)CC2)c1=O [Co. No. 193],> 10000
5,Cn1cccc(C(=O)NC2CCN(C(=O)[C@H]3CC[C@@](C(=O)N[C@H](C(=O)O)c4ccccc4)(c4ccccc4)c4ccccc43)CC2)c1=O [Co. No. 194],> 10000
6,Cn1cccc(C(=O)NC2CCN(C(=O)[C@H]3CC[C@@](C(=O)N[C@@H](Cc4ccccc4)C(=O)O)(c4ccccc4)c4ccccc43)CC2)c1=O [Co. No. 195],> 10000
7,Cn1cccc(C(=O)NC2CCN(C(=O)[C@H]3CC[C@@](C(=O)N[C@H](Cc4ccccc4)C(=O)O)(c4ccccc4)c4ccccc43)CC2)c1=O [Co. No. 196],> 10000
8,Cn1cccc(C(=O)NC2CCN(C(=O)[C@H]3CC[C@@](C(=O)N[C@@H](Cc4ccc(O)cc4)C(=O)O)(c4ccccc4)c4ccccc43)CC2)c1=O [Co. No. 197],> 10000
9,Cn1cccc(C(=O)NC2CCN(C(=O)[C@H]3CC[C@@](C(=O)N[C@@H](CC(N)=O)C(=O)O)(c4ccccc4)c4ccccc43)CC2)c1=O [Co. No. 198],> 10000
10,COC(=O)CCCNC(=O)[C@@]1(c2ccccc2)CC[C@H](C(=O)N2CCC(NC(=O)c3cccn(C)c3=O)CC2)c2ccccc21 [Co. No. 224],1140
11,COC(=O)CCCCCNC(=O)[C@@]1(c2ccccc2)CC[C@H](C(=O)N2CCC(NC(=O)c3cccn(C)c3=O)CC2)c2ccccc21 [Co. No. 228],307
12,CCOC(=O)NCCCC[C@H](CC(=O)[C@@]1(c2ccccc2)CC[C@H](C(=O)N2CCC(NC(=O)c3cccn(C)c3=O)CC2)c2ccccc21)C(=O)OCC [Co. No. 232],3330
13,CCOC(=O)[C@H](CCCCNC(=O)OC(C)C)NC(=O)[C@@]1(c2ccccc2)CC[C@H](C(=O)N2CCC(NC(=O)c3cccn(C)c3=O)CC2)c2ccccc21 [Co. No. 234],> 10000
14,COC(=O)[C@H](CCCCNC(=O)[C@@]1(c2ccccc2)CC[C@H](C(=O)N2CCC(NC(=O)c3cccn(C)c3=O)CC2)c2ccccc21)NC(C)=O [Co. No. 236],2670
15,CCOC(=O)NCCCC[C@@H](NC(=O)[C@@]1(c2ccccc2)CC[C@H](C(=O)N2CCC(NC(=O)c3cccn(C)c3=O)CC2)c2ccccc21)C(=O)OC [Co. No. 238],2330
16,CCOC(=O)NCCCC[C@@H](NC(=O)[C@@]1(c2ccccc2)CC[C@H](C(=O)N2CCC(NC(=O)c3cccn(C)c3=O)CC2)c2ccccc21)C(=O)OCC [Co. No. 239],643
17,COC(=O)[C@@H](CCCCNC(=O)OC(C)C)NC(=O)[C@@]1(c2ccccc2)CC[C@H](C(=O)N2CCC(NC(=O)c3cccn(C)c3=O)CC2)c2ccccc21 [Co. No. 240],286
18,CCOC(=O)[C@@H](CCCCNC(=O)OC(C)C)NC(=O)[C@@]1(c2ccccc2)CC[C@H](C(=O)N2CCC(NC(=O)c3cccn(C)c3=O)CC2)c2ccccc21 [Co. No. 241],243
19,CC(C)OC(=O)NCCCC[C@@H](NC(=O)[C@@]1(c2ccccc2)CC[C@H](C(=O)N2CCC(NC(=O)c3cccn(C)c3=O)CC2)c2ccccc21)C(=O)OC(C)C [Co. No. 242],2360

# The remaining lines, values ahead:
row,IC50 [nM],Structure (SMILES)
1,6.47,CCNC(=O)[C@]1(c2ccccc2)CC[C@@H](C(=O)N2CCC(NC(=O)c3ccccc3OC)CC2)c2ccccc21 (racemic) [Co. No. 7]
2,1.92,CCOC(=O)[C@]1(c2ccccc2)CC[C@@H](C(=O)N2CCC(NC(=O)c3ccccc3OC)CC2)c2ccccc21 (racemic) [Co. No. 26]
3,1.9,"CCOC(=O)[C@@]1(c2ccccc2)CC[C@H](C(=O)N2CCC(NC(=O)c3ccccc3)CC2)c2ccccc21 (single isomer, unassigned) [Co. No. 32]"
4,3,"CCNC(=O)[C@@]1(c2ccccc2)CC[C@H](C(=O)N2CCC(NC(=O)c3ccccc3OC)CC2)c2ccccc21 (single isomer, unassigned) [Co. No. 39]"
5,90.4,"COc1ccccc1C(=O)NC1CCN(C(=O)[C@@H]2CC[C@](C(N)=O)(c3ccccc3)c3ccccc32)CC1 (single isomer, unassigned) [Co. No. 43]"
6,17.7,O=C(NC1CCN(C(=O)C2CCC(C(=O)NCc3ccccc3)(c3ccccc3)c3ccccc32)CC1)c1ccccc1 (centres unmarked) [Co. No. 3]
7,42.4,CCCNC(=O)C1(c2ccccc2)CCC(C(=O)N2CCC(NC(=O)c3ccccc3)CC2)c2ccccc21 (centres unmarked) [Co. No. 4]
8,16,CCCNC(=O)C1(c2ccccc2)CCC(CN2CCC(NC(=O)c3ccccc3-c3ccc(C(F)(F)F)cc3)CC2)c2ccccc21 (centres unmarked) [Co. No. 6]
9,2.82,C=CCOC(=O)[C@]1(c2ccccc2)CC[C@@H](C(=O)N2CCC(NC(=O)c3ccccc3OC)CC2)c2ccccc21 [Co. No. 8]
10,1.96,CCNC(=O)[C@]1(c2ccccc2)CC[C@@H](C(=O)N2CCC(NC(=O)c3ccccc3-c3ccc(C(F)(F)F)cc3)CC2)c2ccccc21 [Co. No. 10]
11,217,CCNC(=O)[C@]1(c2ccccc2)CC[C@H](C(=O)N2CCC(NC(=O)c3ccccc3-c3ccc(C(F)(F)F)cc3)CC2)c2ccccc21 [Co. No. 11]
12,228,CC(C)OC(=O)CCCCNC(=O)[C@@]1(c2ccccc2)CC[C@H](C(=O)N2CCC(NC(=O)c3cccn(C)c3=O)CC2)c2ccccc21 [Co. No. 227]
13,170,Cn1cccc(C(=O)NC2CCN(C(=O)[C@H]3CC[C@@](C(=O)NCCCCCC(=O)OC(C)(C)C)(c4ccccc4)c4ccccc43)CC2)c1=O [Co. No. 230]
14,234,COC(=O)[C@@H](CCCCNC(=O)OC(C)(C)C)NC(=O)[C@@]1(c2ccccc2)CC[C@H](C(=O)N2CCC(NC(=O)c3cccn(C)c3=O)CC2)c2ccccc21 [Co. No. 237]
15,63.1,CCOC(=O)[C@]1(c2ccccc2)CC[C@@H](C(=O)N2CCN(CC(=O)c3ccccc3OC)CC2)c2ccccc21 [Co. No. 259]
16,14.5,CCOC(=O)[C@]1(c2ccccc2)CC[C@@H](C(=O)N2CCC(NC(=O)c3ccccc3N3CCN(C)CC3)CC2)c2ccccc21 [Co. No. 268]
17,8.45,C=CCOC(=O)[C@@]1(c2ccccc2)CC[C@H](C(=O)N2CCC(NC(=O)c3ccccc3N3CCN(C)CC3)CC2)c2ccccc21 [Co. No. 269]
18,14.1,CCOC(=O)[C@]1(c2ccccc2)CC[C@@H](C(=O)N2CCC(N(C)C(=O)c3ccccc3OC)CC2)c2ccccc21 [Co. No. 270]
19,2.94,CCOC(=O)[C@]1(c2cccc(F)c2)CC[C@@H](C(=O)N2CCC(NC(=O)c3ccccc3OC)CC2)c2cc(F)ccc21 [Co. No. 271]

# Test system: HepG2 cells
# Test: Quantification of the secretion of ApoB
# Type: cell-based
# Conditions: 24 hours of incubation, pIC50 = -log IC50, listed as 8
# Procedure: HepG2 cells were cultured in 24-well plates in MEM Rega 3 containing 10% fetal calf serum. At 70% confluency, the medium was changed and the test compound or carrier (DMSO, 0.4% final concentration) was added. After 24 hours of incubation, the medium was transferred to Eppendorf tubes and cleared by centrifugation. A sheep antibody directed against either apoB was added to the supernatant and the mixture was kept at 8° C. for 24 hours. Then, rabbit anti-sheep antibody was added and the immune complex was allowed to precipitate for 24 hours at 8° C. The immunoprecipitate was pelleted by centrifugation for 25 minutes at 1320 g and washed twice with a buffer containing 40 mM Mops, 40 mM NaH2PO4, 100 mM NaF, 0.2 mM DTT, 5 mM EDTA, 5 mM EGTA, 1% Triton-X-100, 0.5% sodium deoxycholate (DOC), 0.1% SDS, 0.2 μM leupeptin and 0.2 μM PMSF. Radioactivity in the pellet was quantified by liquid scintillation counting. The IC50 values are usually converted to pIC50 values (=−log IC50 value) for ease of use.
row,pIC50,Structure (SMILES)
1,8.188,C=CCOC(=O)[C@]1(c2ccccc2)CC[C@@H](C(=O)N2CCC(NC(=O)c3ccccc3OC)CC2)c2ccccc21 [Co. No. 8]

# Same assay, conditions: 24 hours of incubation, pIC50 = -log IC50, listed as 46
row,pIC50,Structure (SMILES)
1,6.649,C=CCOC(=O)[C@]1(c2ccccc2)CC[C@@H](C(=O)N2CCC(NC(=O)c3ccccc3OC)CC2)c2ccccc21 [Co. No. 46]

# Same assay, conditions: Homo sapiens, HepG2, 24 h, 24 hours of incubation, pIC50 = -log IC50
row,Structure (SMILES),IC50 [nM]
1,"COc1ccccc1C(=O)NC1CCN(C(=O)[C@@H]2CC[C@@](C(N)=O)(c3ccccc3)c3ccccc32)CC1 (single isomer, unassigned) [Co. No. 41]",35.8
2,"COc1ccccc1C(=O)NC1CCN(C(=O)[C@H]2CC[C@@](C(N)=O)(c3ccccc3)c3ccccc32)CC1 (single isomer, unassigned) [Co. No. 44]",106
3,O=C(NC1CCN(CC2CCC(C(=O)NCc3ccccc3)(c3ccccc3)c3ccccc32)CC1)c1ccccc1 (centres unmarked) [Co. No. 1],1840
4,O=C(NC1CCN(C(=O)C2CCC(C(=O)Nc3ccccc3)(c3ccccc3)c3ccccc32)CC1)c1ccccc1 (centres unmarked) [Co. No. 2],74.5
5,CCCNC(=O)C1(c2ccccc2)CCC(CN2CCC(NC(=O)c3ccccc3)CC2)c2ccccc21 (centres unmarked) [Co. No. 5],1910
6,C=CCOC(=O)[C@@]1(c2ccccc2)CC[C@H](C(=O)N2CCC(NC(=O)c3ccccc3OC)CC2)c2ccccc21 [Co. No. 45],2.63

# Next, values leading:
row,IC50 [nM],Structure (SMILES)
1,2.28,CCNC(=O)[C@]1(c2ccccc2)CC[C@@H](C(=O)N2CCC(NC(=O)c3ccccc3OC)CC2)c2ccccc21 (racemic) [Co. No. 7]
2,6.37,CCOC(=O)[C@]1(c2ccccc2)CC[C@@H](C(=O)N2CCC(NC(=O)c3ccccc3OC)CC2)c2ccccc21 (racemic) [Co. No. 26]
3,7.52,"CCOC(=O)[C@@]1(c2ccccc2)CC[C@H](C(=O)N2CCC(NC(=O)c3ccccc3)CC2)c2ccccc21 (single isomer, unassigned) [Co. No. 32]"
4,3.13,"CCNC(=O)[C@@]1(c2ccccc2)CC[C@H](C(=O)N2CCC(NC(=O)c3ccccc3OC)CC2)c2ccccc21 (single isomer, unassigned) [Co. No. 39]"
5,267,"COc1ccccc1C(=O)NC1CCN(C(=O)[C@@H]2CC[C@](C(N)=O)(c3ccccc3)c3ccccc32)CC1 (single isomer, unassigned) [Co. No. 43]"
6,80.5,O=C(NC1CCN(C(=O)C2CCC(C(=O)NCc3ccccc3)(c3ccccc3)c3ccccc32)CC1)c1ccccc1 (centres unmarked) [Co. No. 3]
7,228,CCCNC(=O)C1(c2ccccc2)CCC(C(=O)N2CCC(NC(=O)c3ccccc3)CC2)c2ccccc21 (centres unmarked) [Co. No. 4]
8,20.4,CCCNC(=O)C1(c2ccccc2)CCC(CN2CCC(NC(=O)c3ccccc3-c3ccc(C(F)(F)F)cc3)CC2)c2ccccc21 (centres unmarked) [Co. No. 6]
9,1.85,CCNC(=O)[C@]1(c2ccccc2)CC[C@@H](C(=O)N2CCC(NC(=O)c3ccccc3-c3ccc(C(F)(F)F)cc3)CC2)c2ccccc21 [Co. No. 10]
10,> 100,CCNC(=O)[C@]1(c2ccccc2)CC[C@H](C(=O)N2CCC(NC(=O)c3ccccc3-c3ccc(C(F)(F)F)cc3)CC2)c2ccccc21 [Co. No. 11]
